Test results published in US7374890B2, “Methods for identifying compounds that modulate ΔTRα2 activity” (University of Massachusetts, priority 2000, dated 2008).

Assays:
[1] = tested on: binding of p29 vesicles to F-actin; experiment: in vitro actin binding assay with BrAc[125I]T4-labeled p29 vesicles; assay type: biochemical, rat; settings: 10 nM hormone, 20 minutes at 37° C.
Method: Actin binding of the p29 vesicles was then initiated by addition of 10 nM T4, and the Triton-insoluble (F-actin bound) pellet was separated from the Triton-soluble (vesicle) fraction.
An in vitro binding assay was developed whose principle is based on the hormone dependent redistribution of affinity labeled p29 between the Triton-soluble (vesicle pool) and Triton-insoluble (F-actin cytoskeleton) fractions. The assay was used to examine the hormone dependent relationship between the p29-containing endosome and the F-actin cytoskeleton. Two different pools of astrocytes were prepared. […] The other astrocyte pool was used to prepare affinity BrAc [^125 I]T4-labeled p29 vesicles from thyroid-deficient cells (V-lysate; Farwell et al. 1990, J. Biol. Chem. 265:18546-18553). V-lysates were prepared from cAMP-stimulated astrocytes grown in serum-free media that were labeled with 2 nM BrAc[^125 I]T4 as described in Farwell et al. (1990, J. Biol. Chem. 265:18546-18553). […]
After the incubation, the mixtures were chilled on ice for 2 minutes, then Triton X-100® (0.5% v/v, final) was added and the soluble (Triton supernatant, vesicles) and insoluble (Triton pellet, F-actin) fractions were separated by microfuge centrifugation at 4° C. for 5 minutes. The distribution of [^125 I]-labeled p29 was then determined by SDS PAGE analysis.

[2] = tested on: cerebellar granule neurons; experiment: FM1-43 synaptic vesicle recycling in cultured cerebellar granule neurons, spontaneous activity; assay type: cell-based, rat
Method: All of the major components of hormone-induced vesicle trafficking in astrocytes (actin fibers, myosin V (also referred to as myosin 5a and myo 5a), and recycling vesicles) are also present in nerve terminals. Therefore, the effects of thyroid hormone on synaptic vesicle recycling in the presynaptic nerve terminal were examined using myo5a-dependent synaptic vesicle (SV) recycling in cultured cerebellar granule neurons. In these experiments, rat granule neurons were grown on laminin-coated coverslips in the absence or presence of hormone and synaptic vesicle recycling was examined using FM1-43 (a styryl dye used in the art for studying endocytosis and exocytosis, e.g., in synaptic vesicle uptake and release assays; Molecular Probes, Inc. Eugene, Oreg.). […] In contrast, granule neurons grown in thyroid hormone supplemented medium released only 15-20% of the FM1-43 after six minutes of incubation and the hormone specificity of retention of FM1-43 in the “reserve pool” was identical to that determined for myo5a-dependent, endocytosis of p29 vesicles (D2p29 vesicles) in astrocytes.
Cerebellar granule neurons were examined because thyroid hormone has a profound influence on granule neuron viability during cerebellar maturation (Xiao and Nikodem, 1998, Front. Biosci. 3: A52-57; Rabie et al., 1980, Brain Res. 190:409-414), and because of the effects of the loss of myo5a on synaptic vesicle homeostasis (Bridgman, 1999, J. Cell Biol. 146:1045-1060). […]
Experiments were conducted to determine whether synaptic vesicle endocytosis could be altered by the hormone status of the neuron. […] The dye was then removed and the number, intensity and retention of the FM1-43 in random nerve terminals immediately after washing and after six minutes of autonomous activity were analyzed in paraformaldehyde fixed cells (Ryan, 1999, J. Neurosci.: 19:1317-1323). Fluorescence in single nerve terminals (ROI=7×7 pixels) and in an adjacent segment of the neuronal fiber were measured for 40-45 individual nerve terminals. […] Fluorescence intensity was determined using NIH Image software. The total FM1-43 fluorescence in a nerve terminal represents the sum of the dye-loaded synaptic vesicles in the readily releasable and the reserve pools.
By allowing recurrent activity, the FM1-43 filled synaptic vesicles present in the readily releasable pool will be progressively depleted. […] By measuring the total FM1-43 content in random nerve terminals immediately after loading and at 30 second intervals for six minutes of spontaneous activity, the influence of hormones on the distribution of recycling synaptic vesicles between the readily releasable and reserve pools was estimated.

[3] = tested on: cerebellar granule neurons; experiment: release of FM1-43-loaded synaptic vesicles from cerebellar granule neurons under continuous stimulus; assay type: cell-based, rat; settings: 10 nM hormone; continuous stimulation by 50 mM KCl; vs no hormone controls; first order kinetics assumed
Method: Granule neurons were grown for 7 days and rendered hormone free by growth in serum-free medium as detailed above. Coverslips were then placed in a perfusion chamber, mounted on the stage of a laser scanning confocal microscope and perfused at 1 ml/min at 25° C. with perfusion buffer (119 mM NaCl, 2.5 mM KCl, 2 mM CaCl2, 2 mM MgCl2, 25 mM HEPES (pH 7.4), 30 mM glucose, and […] AP-5). The effects of different hormones on synaptic vesicle trafficking were then determined. […] Depolarizing KCl was then removed from the perfusion buffer and the cells were exposed to FM1-43 for an additional 30 seconds to insure complete loading of recycling synaptic vesicles. Loaded cells were then washed free of dye and the cells were perfused for ten minutes at rest.
Images of a single field of neuronal fibers were then taken immediately before adding a second depolarizing solution (perfusion buffer containing 50 mM KCl) and at one and two minutes after beginning the continuous stimulation by 50 mM KCl. Thirty to forty-five individual FM1-43 labeled nerve terminals were identified in the baseline images (taken prior to depolarization) and the change in fluorescence (DF) for each nerve terminal determined at the one and two minute time points. FIGS. 11A and 11B show the results of analysis of the hormone specificity of synaptic vesicle trafficking (FIG. 11A) and the influence of individual myo5a mutants (FIG. 11B) on synaptic vesicle transport in granule neurons.
To evaluate the role of myo5a in synaptic vesicle transport, three different myo5a constructs were introduced into the neurons by replication-deficient adenoviral vectors (Δmyo5a^tail(MyoV^tail), Δmyo5a^c-term(MyoV^1830)and ΔMyo5a^CC(MyoV^cc) see FIG. 5) as described above. […] Neurons were infected with purified Ad5-constructs (MOI=10) 48 hours prior to the synaptic vesicle trafficking study, and allowed to recover in hormone (T4) supplemented medium. […] This modest influence of the VBD mutant on synaptic vesicle retention is likely to be due to the loss of the kinesin-binding domain that limits its delivery to nerve terminals.

N[C@@H](Cc1cc(I)c(Oc2cc(I)c(O)c(I)c2)c(I)c1)C(=O)O [T4, thyroxine]
radiolabeled p29 bound to the Triton insoluble, F-actin fraction [1]: more than 70% | endocytosed FM1-43 retained ([2]; acute treatment, after three minutes of spontaneous stimulation): > 90% | uptake of FM1-43 ([2]; immediately after loading): No differences | decrease of the rate of FM1-43 release [3]: 75%
